Results reported in patent EP4332093A1, “SALT CONTAINING PIPERAZINE POLYCYCLIC DERIVATIVE, CRYSTAL FORM THEREOF, PREPARATION METHOD THEREFOR, AND USE THEREOF” (Shanghai Hansoh Biomedical Co., Ltd., priority 2021, dated 2022).
Read-outs that look alike come from different tables or passages of the source.

Columns and labels:
[1] = target: T1, dopamine D3 receptor (Homo sapiens, UniProt P35462); assay: Radioligand binding assay, dopamine D3 receptor ([3H]-methylspiperone); settings: Human Dopamine D3 Receptor membrane, [3H]-methylspiperone 0.5 nM
T1 construct: purchased PerkinElmer ES-173-M400UA
T1 sequence (P35462 whole entry): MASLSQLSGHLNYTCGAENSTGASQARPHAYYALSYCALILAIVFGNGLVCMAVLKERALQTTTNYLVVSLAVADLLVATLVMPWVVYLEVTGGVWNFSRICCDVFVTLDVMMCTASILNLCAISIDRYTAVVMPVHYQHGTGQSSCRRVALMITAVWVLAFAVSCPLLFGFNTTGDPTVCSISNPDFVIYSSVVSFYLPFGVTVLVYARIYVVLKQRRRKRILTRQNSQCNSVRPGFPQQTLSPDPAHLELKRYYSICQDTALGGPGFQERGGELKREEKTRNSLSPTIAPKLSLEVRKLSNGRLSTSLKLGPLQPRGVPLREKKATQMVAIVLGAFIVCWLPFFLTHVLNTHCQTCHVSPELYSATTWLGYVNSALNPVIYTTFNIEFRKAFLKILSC
Protocol: Determination of the binding ability of the compounds of the present invention to dopamine D3 receptor
The objective of this test example is to determine the affinity of the compounds for dopamine D3 receptor.
Experimental buffer: 50 mM Tris-HCl pH 7.4, 10 mm MgCl2; washing liquor: 50 mM Tris-HCl pH 7.4, stored at 4°C; 0.5% PEI solution: 0.5 g PEI dissolved in 100 mL ddH2O, 4°C storage of spare.
(§1) 5 µL of the test compounds (0.005 nM to 100 nM, 10 concentrations in total) and 100 µL of buffer were added to a 96-well assay plate. 1 µL of cell membrane and 300 µL of buffer were added to each well, and the plate was shaken at 600 rpm for 5 minutes. 100 µL of a mixed solution of buffer and [^3H]-methylspiperone (final concentration of 0.5 nM) was added to the reaction system per well, and the plate was shaken at 600 rpm for 5 minutes and incubated at 27°C for 30 min. The UNIFII,TER-96 GF/B filter plate pre-incubated with 0.5% PEI for 1 h was washed twice with the buffer (1 mL/well). The cell membrane suspension was added to the […]-96 GF/B filter plate, washed 4 times, and incubated at 55°C for 10 min. 40 µL of ULTIMA GOLD was added to each well, and liquid scintillation counting was carried out.
(§2) The CPM (Counts per minute) values were determined by TopCount. […] The 10 concentrations of the compound were from 100 nM to 0.005 nM after 3-fold dilution of the reaction system. The percent inhibition rate and ten-point concentration data were fitted to the parametric nonlinear logistic equation by using GraphPad prism to calculate the IC50 values of the compound.

[2] = target: T2, D3 receptor (Homo sapiens, UniProt P35462); assay: cAMP content in cells stably expressing D3 receptors (CHO-D3, forskolin, HTRF); format: cell-based
T2 construct: expressed in transfected cells
T2 sequence (P35462 whole entry): as above
Protocol: Determination of the effect of the compounds of the present invention on cAMP content in cells stably expressing D3 receptors
To determine the activation effect of the compounds on D3 receptor.
• 1. Preparation of the buffer: 1* HBSS + 20mM HEPES + 0.1% BSA + 500 µM IBMX. Complete medium: Ham's F12K + 10% fetal bovine serum +1* penicillin-streptomycin + 400 µg/mL G418. • 2. CHO-D3 cells were cultured in the complete medium at 37°C, 5% CO2. After TrypLE digestion, the cells were resuspended in the experimental buffer, and seeded into a 384-well cell culture plate at a seeding density of 8000 cells per well. • 3. The experimental buffer (1*HBSS, 0.1% BSA, 20 mM HEPES and 500 µM IBMX) was prepared. The compound was diluted with the buffer. 2.5 µL of the compound solution was added to each well, and the plate was incubated at 37°C for 10 minutes. The forskolin was diluted to 8 µM (8*) with the experimental buffer. 2.5 µL of the diluted 8* forskolin was added, and the plate was incubated at 37°C for 30 minutes. cAMP-d2 and Anti-cAMP-Eu^3+ were thawed, and diluted by 20-fold with the lysis buffer. 10 µL of cAMP-d2 was added to the experimental well, followed by the addition of 10 µL of Anti-cAMP-Eu^3+. The reaction plate was centrifuged at 200 g for 30 s at room temperature, and left to stand at 25°C for 1 h. Data was collected using Envision.

[3] = target: T3, 5-HT2A receptor (Homo sapiens, UniProt P28223); assay: Radioligand binding assay, 5-HT2A receptor ([3H]-Ketanserin); parameters: purchased PerkinElmer; settings: Human 5-HT2A Receptor membrane, [3H]-Ketanserin 2 nM; read-out: 5HT-2A Binding IC50
T3 sequence (P28223 whole entry): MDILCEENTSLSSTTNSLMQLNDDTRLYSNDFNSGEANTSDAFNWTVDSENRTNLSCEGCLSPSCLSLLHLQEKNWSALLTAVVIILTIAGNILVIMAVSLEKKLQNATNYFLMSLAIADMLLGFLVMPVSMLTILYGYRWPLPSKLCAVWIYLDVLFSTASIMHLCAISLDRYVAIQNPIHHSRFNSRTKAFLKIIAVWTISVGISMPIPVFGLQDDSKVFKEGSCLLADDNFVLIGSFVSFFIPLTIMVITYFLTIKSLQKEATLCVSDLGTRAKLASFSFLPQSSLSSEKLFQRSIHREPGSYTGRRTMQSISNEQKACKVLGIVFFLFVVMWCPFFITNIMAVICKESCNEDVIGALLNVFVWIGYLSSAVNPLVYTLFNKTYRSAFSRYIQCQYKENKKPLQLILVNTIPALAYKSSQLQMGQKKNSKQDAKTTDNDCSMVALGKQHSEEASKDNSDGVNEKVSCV
Protocol: Determination of the binding ability of the compounds of the
present invention to 5-HT2A receptor
The objective of this test example is to determine the affinity of the compounds for 5-HT2A receptor.
Experimental buffer: 50 mM Tris-HCl pH 7.4, 4 mM CaCl2; washing liquor: 50 mM Tris-HCl pH 7.4, stored at 4°C; 0.5% PEI solution: 0.5 g PEI dissolved in 100 mL ddH2O, 4°C storage of spare.
as §1, with “plate. 1.5” for “plate. 1”, “and [^3H]-Ketanserin” for “and [^3H]-methylspiperone”, “of 2” for “of 0.5”, “The […]-96” for “The UNIFII,TER-96”
as §2

[4] = target: T3, 5-HT2A receptor; assay: Calcium ion mobility in cells stably expressing 5-HT2A receptors (Flp-In-CHO-5HT2A, FLIPR); format: cell-based; parameters: expressed in transfected cells; settings: Flp-In-CHO-5HT2A stable pool, 5HT stimulation
Protocol: Determination of the effect of the compounds of the present invention on calcium ion mobility in cells stably expressing 5-HT2A receptors
To determine the inhibitory effect of the compounds on 5-HT2A receptor.
• 1) Preparation of the buffer: 1 x HBSS, 20 mM HEPES, 2.5 mM probenecid (probenecid was 400 mM stock in 1 M NaOH), 0.1% BSA. Probenecid and BSA were added fresh on the day of the experiment. Experimental buffers include dye buffer and compound dilution buffer. • 2) Cell culture medium: Ham's F-12K + 10% fetal bovine serum + 600 µg/ml hygromycin B + 1* penicillin-streptomycin. Seeding medium: Ham's F-12K + 10% dialysis serum; Assay buffer: 1 x HBSS + 20 mM HEPES; Cell line: Flp-In-CHO-5HT2A stable pool. • 3) The cells were cultured in the complete medium at 37°C, 5% CO2 to 70%-90% confluency. The cells were digested with TrypLE, seeded to the 384-well assay plate at a density of 1 × 10^4 cells/well, and incubated for 16 to 24 hours (at least overnight). • 4) 20X Component A was thawed to room temperature, diluted to 2X working concentration (containing 5mM Probenecid) with the assay buffer, and placed at room temperature for later use. • 5) The cell culture plate was taken out and left to stand at room temperature for 10 min. […] 10 µl of diluted 5HT was add to each experimental well using FLIPR Tetra, and the values were read.
The calcium signal values were determined by FLIPR. The calculated output for each sampling time point in the experiment was the ratio of the 340/510 nm wavelength signals to 380/510 nm wavelength signals. The maximum minus minimum calculation was derived from the ratio signal curve. The percent inhibition rate and ten-point concentration data were fitted to the parametric nonlinear logistic equation by using GraphPad prism to calculate the IC50 values of the compound.

[5] = Pharmacokinetic assay in Balb/c mice (plasma and brain tissue); format: in vivo; settings: male, mouse, po, p.o. 5 mg/kg; for AUC(0-t): read-out: Area under curve AUC0-t; for AUC(0-inf): read-out: Area under curve AUC0-∞; for Tmax: read-out: Peak time tmax; for Cmax: read-out: Plasma concentration Cmax; for MRT: read-out: Average residence time MRT; for half-life: read-out: Half life t1/2 (converted)
Protocol: Balb/c mice were used as test animals. The pharmacokinetic behavior in mouse body (plasma and brain tissue) of the compounds of Examples of the present invention was studied at an oral administration dose of 5 mg/kg.
Compounds of the Examples of the present invention, prepared by the applicant.
Male Balb/c mice (12 mice per group), purchased from Shanghai Jiesijie Laboratory Animal Co., LTD, with Certificate No.: SCXK (Shanghai) 2013-0006 N0.311620400001794.
The test compound was dissolved in 0.5% CMC-Na (1% Tween80) by sonication to formulate a clear solution or homogeneous suspension.
After an overnight fast, male Balb/c mice (12 mice per group) were administered p.o. with the test compound at an administration dose of 5 mg/kg and an administration volume of 10 mL/kg.
0.2 mL of blood was taken from the heart of the mouse before administration and at 1, 2, 4, 8 and 24 hours after administration, and the mice were sacrificed with CO2. The samples were stored in EDTA-K2 tubes, and centrifuged for 6 minutes at 4°C, 6000 rpm to separate the plasma. The plasma samples were stored at -80°C. Whole brain tissue was taken out, weighed, placed in a 2 mL centrifuge tube, and stored at -80°C.
• 1) 160 µL of acetonitrile was added to 40 µL of the plasma sample for precipitation, and then the mixture was centrifuged for 5 to 20 minutes at 3500 × g. • 2) 90 µL of acetonitrile containing internal standard (100 ng/mL) was added to 30 µL of the plasma and brain homogenate sample for precipitation, and then the mixture was centrifuged for 8 minutes at 13000 rpm. • 3) 70 µL of water was added to 70 µL of the treated supernatant and mixed by vortex for 10 minutes. 20 µL of the supernatant was taken to analyze the concentration of the test compound by LC/MS/MS. LC/MS/MS analytical instrument: AB Sciex API 4000 Qtrap.
• Liquid chromatography condition: Shimadzu LC-20AD pump • Chromatographic column: Agilent ZORBAX XDB-C18 (50×2.1 mm, 3.5 µm); Mobile phase: Eluent A was 0.1% formic acid in water, and Eluent B was acetonitrile • Flow rate: 0.4 mL/min • Elution time: 0-4.0 minutes, the eluent is as follows:
The main parameters of pharmacokinetics were calculated by WinNonlin 6.1. Table 17: Experimental results of pharmacokinetic assay in mice

| SMILES | IC50 [1] | EC50 [2] | IC50 [3] | IC50 [4] | AUC(0-t) ([5]; Brain) | AUC(0-inf) ([5]; Brain) | Tmax ([5]; Brain) | Cmax ([5]; Brain) | AUC(0-t) ([5]; Plasma) | AUC(0-inf) ([5]; Plasma) | MRT ([5]; Plasma) | half-life ([5]; Plasma) | Tmax ([5]; Plasma) | Cmax ([5]; Plasma) |
| --- | --- | --- | --- | --- | --- | --- | --- | --- | --- | --- | --- | --- | --- | --- |
| O=C(N[C@H]1C[C@H](CCN2CCN(c3cccc(Cl)c3Cl)CC2)C1)c1ccno1 [Example 15A, N-(Trans-3-(2-(4-(2,3-dichlorophenyl)piperazin-1-yl)ethyl)cyclobutyl)isoxazole-5-ca rboxamide] | 0.31 nM | 0.7 nM | 0.98 nM | 3.14 nM | – | – | – | – | – | – | – | – | – | – |
| C[C@@H]1CN(CCC2CC(NC(=O)C(C)(C)O)C2)CCN1c1cccc(Cl)c1Cl (stereo partly drawn) [Example 22, (R)-N-(3-(2-(4-(2,3-Dichlorophenyl)-3-methylpiperazin-1-yl)ethyl)cyclobutyl)-2-hy droxy-2-methylpropanamide] | 2.78 nM | 0.4 nM | 9.63 nM | – | – | – | – | – | – | – | – | – | – | – |
| O=C(N[C@H]1C[C@H](CCN2CCN(c3cccc(Cl)c3Cl)CC2)C1)c1ccon1 [Example 17A, N-(Trans-3-(2-(4-(2,3-dichlorophenyl)piperazin-1-yl)ethyl)cyclobutyl)isoxazole-3-ca rboxamide] | 0.3 nM | 1.1 nM | 1.92 nM | 20.8 nM | – | – | – | – | – | – | – | – | – | – |
| Cc1ncc(C(=O)NC2CC(CCN3CCN(c4cccc(Cl)c4Cl)CC3)C2)o1 (centres unmarked) [Example 16A] | 0.33 nM | 1.7 nM | 1.8 nM | 4.28 nM | – | – | – | – | – | – | – | – | – | – |
| O=C(N[C@H]1C[C@@H](CCN2CCN(c3cccc(Cl)c3Cl)CC2)C1)C1(O)CC1 [Example 6B, N-(Cis-3-(2-(4-(2,3-dichlorophenyl)piperazin-1-yl)ethyl)cyclobutyl)-1-hydroxycyclo propane-1-carboxamide] | 4.37 nM | – | 48.4 nM | 39 nM | 900 ng·h/mL | – | 1 h | 361 ng/mL | 2250 ng·h/mL | 2320 ng·h/mL | 2.3 h | 1.6 h | 0.5 h | 961 ng/mL |

The remaining molecules from weak to strong by IC50 [1], led by results:

| IC50 [1] | EC50 [2] | IC50 [3] | IC50 [4] | AUC(0-t) ([5]; Brain) | AUC(0-inf) ([5]; Brain) | Tmax ([5]; Brain) | Cmax ([5]; Brain) | AUC(0-t) ([5]; Plasma) | AUC(0-inf) ([5]; Plasma) | MRT ([5]; Plasma) | half-life ([5]; Plasma) | Tmax ([5]; Plasma) | Cmax ([5]; Plasma) | SMILES |
| --- | --- | --- | --- | --- | --- | --- | --- | --- | --- | --- | --- | --- | --- | --- |
| 1.13 nM | 0.9 nM | 6.39 nM | – | 2190 ng·h/mL | 2310 ng·h/mL | 1 h | 339 ng/mL | 1480 ng·h/mL | 2000 ng·h/mL | 5.7 h | 3.4 h | 0.5 h | 369 ng/mL | CCN(C)C(=O)NC1CC(CCN2CCN(c3cccc4sccc34)CC2)C1 (centres unmarked) [Example 24, 3-(3-(2-(4-(Benzo[b]thiophen-4-yl)piperazin-1-yl)ethyl)cyclobutyl)-1-ethyl-1-methy lurea] |
| 0.79 nM | – | 6.35 nM | – | 1540 ng·h/mL | 1650 ng·h/mL | 1 h | 162 ng/mL | 240 ng·h/mL | 297 ng·h/mL | 5.1 h | 3.25 h | 1 h | 49.7 ng/mL | O=C(NC1CC(CCN2CCCN(c3cccc(Cl)c3Cl)CC2)C1)c1ccco1 (centres unmarked) [Example 25, N-(3-(2-(4-(2,3-Dichlorophenyl)-1,4-diazepan-1-yl)ethyl)cyclobutyl)furan-2-carbox amide] |
| 0.34 nM | 0.9 nM | 1.35 nM | 4.37 nM | – | – | – | – | – | – | – | – | – | – | Cc1cc(C(=O)NC2CC(CCN3CCN(c4cccc(Cl)c4Cl)CC3)C2)on1 (centres unmarked) [Example 14A] |
